Read-outs that look alike come from different tables or passages of the source.
Assays:
adrenergic β-receptor [1] = target: T1, adrenergic β-receptor (Cavia porcellus, UniProt H0W3H1); experiment: Antagonism of l-isoproterenol-induced increase of atrial contraction, isolated guinea pig atria (Experiment 1); set-up: species or system male Hartley guinea pig; settings: l-isoproterenol 5 × 10^-8 g./ml., 10 minutes previously
T1 construct: The atria obtained from a male Hartley guinea pig; from tissue; host or cells: isolated atria of male Hartley guinea pig
Procedure: The atria obtained from a male Hartley guinea pig weighing 300-500 g. were trimmed and placed in chambers containing Tyrode solution oxygenated with 95% oxygen and 5% carbon dioxide and maintained at 30° C.
Contractile force was recorded by an isometric lever connected to a strain gauge tension transducer. Antagonistic activity of the tested drugs on the 1-isoproterenol-induced increase of the atrial contraction was investigated.
The first control response was measured adding 1-isoproterenol to the bath fluid to a final concentration of 5 × 10^-8 g./ml. Then the preparation was washed and the same procedure was repeated after application of the drugs to be tested, i.e. 4-(3-isopropylamino-2-hydroxypropoxy)indene and 4-(3-isopropylamino-2-hydroxypropoxy)indane (final concentrations of 8 × 10^-9 g./ml. and 5 × 10^-8 g./ml.), 10 minutes previously.

[2] = test system: heart devoid of autonomous nervous control; experiment: Direct effect on heart rate of a heart devoid of autonomous nervous control, reserpinized, adrenalectomized, vagotomized rats (Experiment 2); assay type: in vivo, Wistar rats; settings: for Change of heart rate (%): + increase, - decrease
Procedure: Experiment 2 […] Both adrenal glands were removed and bilateral vagotomy in the neck was performed. […] (RM 100). In Table 2, the symbol + represents an increase in heart rate, while the symbol - represents a decrease in heart rate. The standard error is shown in parenthesis.

adrenergic β-receptor [3] = target: T2, adrenergic β-receptor (Rattus norvegicus, UniProt P18090); experiment: Blockade of isoproterenol-induced tachycardia in reserpinized, vagotomized rats (Experiment 3); assay type: in vivo; settings: for Res: Response (percent increase of heart rate induced by 0.1 μg/kg l-isoproterenol): i.v., cumulative, Control = 100; for ED50: rat, iv, read-out: ED50 (dose producing 50% blockade of the positive chronotropic control response to l-isoproterenol)
T2 construct: studied in reserpinized, vagotomized rats; from tissue; host or cells: heart in the living, anaesthetized rat (in vivo heart rate)
Procedure: The effects of certain compounds on isoproterenol-induced tachycardia as well as on resting heart rate were studied in reserpinized, vagotomized rats. The rat was anaesthetized with pentobarbital 18 hours after treatment with reserpine (8 mg./kg., i.p.) and vagotomized bilaterally in the neck. Heart rate was recorded by a cardiotacho-meter (RT-2, Nihonkoden). […] Ten minutes after each dose of the compound an intravenous injection of l-isoproterenol (0.1 μg./kg.) was administered and the increase in heart rate was recorded. The dose producing 50% blockade of the positive chronotropic control response to l-isoproterenol (ED-50) was estimated in each experiment from curves obtained by plotting inhibition percentage against log cumulative dose.

resting heart rate = experiment: Effect on resting (basic) heart rate in reserpinized, vagotomized rats (Experiment 3); assay type: in vivo, rat; settings: i.v., cumulative
Procedure: The effects of certain compounds on isoproterenol-induced tachycardia as well as on resting heart rate were studied in reserpinized, vagotomized rats. The rat was anaesthetized with pentobarbital 18 hours after treatment with reserpine (8 mg./kg., i.p.) and vagotomized bilaterally in the neck. Heart rate was recorded by a cardiotacho-meter (RT-2, Nihonkoden). After the control response to l-isoproterenol (0.1 μg./kg., i.v.) was obtained, each compound tested was injected intravenously in such doses that the cumulative dose increased four-fold: 0.01-0.04-0.16-0.64-2.56 mg./kg., at 20 minute intervals. Ten minutes after each dose of the compound an intravenous injection of l-isoproterenol (0.1 μg./kg.) was administered and the increase in heart rate was recorded. The dose producing 50% blockade of the positive chronotropic control response to l-isoproterenol (ED-50) was estimated in each experiment from curves obtained by plotting inhibition percentage against log cumulative dose.
abbreviations; ^a) BHR : Basic heart rate (the heart rate just before
administration of l-isoproterenol, unit = beat per minute)

[4] = Acute intravenous toxicity in white mice; settings: mouse, in vivo, injected intravenously
[5] = final concentration 5 × 10^-8 g./ml.
[6] = final concentration 8 × 10^-9 g./ml.
[7] = 0.01 mg./kg. i.v., 1 minute after
[8] = 0.01 mg./kg. i.v., 5 minutes after
[9] = 0.01 mg./kg. i.v., 15 minutes after
[10] = 0.01 mg./kg. i.v., 30 minutes after
[11] = 0.05 mg./kg. i.v., 1 minute after
[12] = 0.05 mg./kg. i.v., 5 minutes after
[13] = 0.05 mg./kg. i.v., 15 minutes after
[14] = 0.05 mg./kg. i.v., 30 minutes after
[15] = 0.10 mg./kg. i.v., 1 minute after
[16] = 0.10 mg./kg. i.v., 5 minutes after
[17] = 0.10 mg./kg. i.v., 15 minutes after
[18] = 0.10 mg./kg. i.v., 30 minutes after
[19] = cumulative dose, l-isoproterenol 0.1 μg./kg. i.v., ± standard error

T1 sequence (H0W3H1 1-470): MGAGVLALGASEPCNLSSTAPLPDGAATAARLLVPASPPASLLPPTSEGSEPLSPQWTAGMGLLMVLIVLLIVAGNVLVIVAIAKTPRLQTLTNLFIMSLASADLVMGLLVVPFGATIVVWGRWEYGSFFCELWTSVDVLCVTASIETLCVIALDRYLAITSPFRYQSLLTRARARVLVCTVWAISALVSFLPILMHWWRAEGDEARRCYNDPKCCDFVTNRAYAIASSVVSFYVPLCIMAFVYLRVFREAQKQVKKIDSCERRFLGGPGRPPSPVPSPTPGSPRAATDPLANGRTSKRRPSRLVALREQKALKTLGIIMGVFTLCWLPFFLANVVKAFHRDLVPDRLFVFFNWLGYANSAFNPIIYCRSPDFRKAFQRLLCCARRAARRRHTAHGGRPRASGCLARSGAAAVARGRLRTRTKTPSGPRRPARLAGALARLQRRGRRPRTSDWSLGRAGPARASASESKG
T2 sequence (P18090 whole entry): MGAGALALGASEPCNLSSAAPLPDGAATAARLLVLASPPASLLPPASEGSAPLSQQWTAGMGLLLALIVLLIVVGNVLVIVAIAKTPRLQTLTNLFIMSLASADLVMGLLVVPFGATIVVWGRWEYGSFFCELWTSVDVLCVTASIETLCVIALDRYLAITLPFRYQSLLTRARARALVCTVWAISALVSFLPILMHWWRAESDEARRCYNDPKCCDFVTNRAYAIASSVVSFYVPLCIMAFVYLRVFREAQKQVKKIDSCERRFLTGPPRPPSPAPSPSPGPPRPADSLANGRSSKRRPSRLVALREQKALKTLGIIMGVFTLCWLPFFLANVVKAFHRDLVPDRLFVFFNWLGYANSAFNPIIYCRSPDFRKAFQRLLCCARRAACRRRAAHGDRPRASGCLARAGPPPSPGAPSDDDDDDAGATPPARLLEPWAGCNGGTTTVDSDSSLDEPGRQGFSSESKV

ED50 (adrenergic β-receptor [3]; [19]) [mg/kg]	SMILES	Inhibition rate (%) (adrenergic β-receptor [1]; [5])	Inhibition rate (%) (adrenergic β-receptor [1]; [6])	Change of heart rate (%) [2, 7]	Change of heart rate (%) [2, 8]	Change of heart rate (%) [2, 9]	Change of heart rate (%) [2, 10]	Change of heart rate (%) [2, 11]	Change of heart rate (%) [2, 12]	Change of heart rate (%) [2, 13]	Change of heart rate (%) [2, 14]	Change of heart rate (%) [2, 15]	Res: Response (percent increase of heart rate induced by 0.1 μg/kg l-isoproterenol) (adrenergic β-receptor [3]; 0.01 mg/kg) [%]	Res: Response (percent increase of heart rate induced by 0.1 μg/kg l-isoproterenol) (adrenergic β-receptor [3]; 0.04 mg/kg) [%]	Res: Response (percent increase of heart rate induced by 0.1 μg/kg l-isoproterenol) (adrenergic β-receptor [3]; 0.16 mg/kg) [%]	Res: Response (percent increase of heart rate induced by 0.1 μg/kg l-isoproterenol) (adrenergic β-receptor [3]; 0.64 mg/kg) [%]	BHR: Basic heart rate (just before administration of l-isoproterenol) (resting heart rate; 0.01 mg/kg) [beat per minute]	BHR: Basic heart rate (just before administration of l-isoproterenol) (resting heart rate; 0.04 mg/kg) [beat per minute]	BHR: Basic heart rate (just before administration of l-isoproterenol) (resting heart rate; 0.16 mg/kg) [beat per minute]	BHR: Basic heart rate (just before administration of l-isoproterenol) (resting heart rate; 0.64 mg/kg) [beat per minute]	also measured
0.065 ± 0.013	CC(C)NCC(O)COc1cccc2c1CCC2 (stereo not drawn) [4-(3-isopropylamino-2-hydroxypropoxy)indane]	88.4	30.4	-0.9%	+0.3%	-1.9%	-1.7%	-2.1%	-2.0%	-2.0%	-4.6%	-5.9%		54±5	33±14	12±1		245±15	236±14	238±17	Change of heart rate (%) [2, 16]: -8.7%; Change of heart rate (%) [2, 17]: -8.7%; Change of heart rate (%) [2, 18]: -5.4%; effect on the cardiac function (in words) ([2]; Experiment 2): deleterious effects on the cardiac function
0.088 ± 0.011	CCC(C)NCC(O)COc1cccc2c1C=CC2 (stereo not drawn) [4-(3-sec-butylamino-2-hydroxypropoxy)indene]												81±4	65±1	40±5	17±3	200±13	218±13	225±14	236±16	Res: Response (percent increase of heart rate induced by 0.1 μg/kg l-isoproterenol) (adrenergic β-receptor [3]; 2.56 mg/kg): 6±1%; BHR: Basic heart rate (just before administration of l-isoproterenol) (resting heart rate; 2.56 mg/kg): 228±23 beat per minute
	C=CCc1ccccc1OCC(O)CNC(C)C (stereo not drawn) [alprenolol (Aptin), alprenolol, reference compound]												65±3	44±3	17±3	3±1	233±12	247±11	261±7	262±4	ED50 (adrenergic β-receptor [3]): 0.03 ± 0.003 mg/kg

SMILES	ED50 (adrenergic β-receptor [3]; [19]) [mg/kg]	Inhibition rate (%) (adrenergic β-receptor [1]; [5])	Inhibition rate (%) (adrenergic β-receptor [1]; [6])	Change of heart rate (%) [2, 7]	Change of heart rate (%) [2, 8]	Change of heart rate (%) [2, 9]	Change of heart rate (%) [2, 10]	Change of heart rate (%) [2, 11]	Change of heart rate (%) [2, 12]	Change of heart rate (%) [2, 13]	Change of heart rate (%) [2, 14]	Change of heart rate (%) [2, 15]	Res: Response (percent increase of heart rate induced by 0.1 μg/kg l-isoproterenol) (adrenergic β-receptor [3]; 0.01 mg/kg) [%]	Res: Response (percent increase of heart rate induced by 0.1 μg/kg l-isoproterenol) (adrenergic β-receptor [3]; 0.04 mg/kg) [%]	Res: Response (percent increase of heart rate induced by 0.1 μg/kg l-isoproterenol) (adrenergic β-receptor [3]; 0.16 mg/kg) [%]	Res: Response (percent increase of heart rate induced by 0.1 μg/kg l-isoproterenol) (adrenergic β-receptor [3]; 0.64 mg/kg) [%]	BHR: Basic heart rate (just before administration of l-isoproterenol) (resting heart rate; 0.01 mg/kg) [beat per minute]	BHR: Basic heart rate (just before administration of l-isoproterenol) (resting heart rate; 0.04 mg/kg) [beat per minute]	BHR: Basic heart rate (just before administration of l-isoproterenol) (resting heart rate; 0.16 mg/kg) [beat per minute]	BHR: Basic heart rate (just before administration of l-isoproterenol) (resting heart rate; 0.64 mg/kg) [beat per minute]	also measured
CC(C)NCC(O)COc1cccc2c1C=CC2 (racemic) [4-(3-isopropylamino-2-hydroxypropoxy)indene]	0.039 ± 0.002	81.5	30.7	+2.4%	+3.8%	+3.2%	+1.7%	+5.6%	+8.4%	+8.7%	+5.2%	+1.5%	74±3	50±2	23±2	5±1	235±12	246±13	245±14	245±12	Change of heart rate (%) [2, 16]: +4.1%; Change of heart rate (%) [2, 17]: +3.5%; Change of heart rate (%) [2, 18]: +4.0%; LD50 [4]: 25 mg/kg
